Reference: patent US9174998B2, “(6S,9aS)-N-benzyl-6-[(4-hydroxyphenyl)methyl]-4,7-dioxo-8-({6-[3-(piperazin-1-yl)azetidin-1-yl]pyridin-2-yl}methyl)-2-(prop-2-en-1-yl)-octahydro-1H-pyrazino[2,1-c][1,2,4]triazine-1-carboxamide compound” (Eisai R&D Management Co., Ltd., priority 2013, dated 2015)
Converted amounts (≈) assume the structure as drawn. Like-named read-outs stand apart in the source and are kept apart here.

Assays:
[1] = Evaluation of metabolic stability; format: in vitro ADME, human; conditions: 0.2 mg/mL HLM, 0.1 μM test substance, 15 minutes at 37° C., with vs without NADPH production
Procedure: A test substance was dissolved in DMSO so that the concentration of the resultant solution became 20 mM, and the solution was diluted with DMSO so that the concentration of the resultant solution became 1 mM. The metabolic stability of the test substance was evaluated using a human liver microsome (HLM) in which human liver was pooled. An assay buffer solution contained 0.2 mg/mL of HLM, a 0.1 M of phosphate potassium buffer solution (pH 7.4), 0.1 mM of EDTA, 0.33 mM of NADP+, 8 mM of glucose-6-phosphate, 0.1 U/mL of glucose-6-phosphate dehydrogenase, 6 mM of MgCl2, 0.1 μM of a test substance (final concentration in DMSO: 0.01%) in 0.15 mL of the final incubation volume. Fifteen minutes after the initiation of the reaction at 37° C., 0.15 mL of a acetonitrile/methanol mixed solution (7:3, by volume) was added to the solution to terminate the reaction. After centrifugation, the resultant supernatant was analyzed by LC-MSMS, peak areas were compared under the presence or absence of the production of NADPH, and the residual ratio of the test substance was calculated.

Wnt signal = experiment: Detection of Wnt signal (TOPglow luciferase reporter, LiCl-stimulated); format: cell-based; conditions: Homo sapiens; HEK293 clone carrying pNeo-TOP reporter; LiCl stimulation; luciferase luminescence; read-out: Test Example 1 IC50 (concentration required for inhibiting the Wnt signal activity by 50%)
Procedure: pcDNA3.1(+) (invitrogen) was cleaved with restriction enzymes BglII and NotI, and an adapter BEHKS having a sequence shown below (containing restriction enzyme sites BglII, EcoRI, HindIII, KpnI, SacI and NotI) was inserted thereinto, thereby producing a plasmid pNeo-HKS.
Subsequently, a fragment having a length of about 2700 bp (containing a Wnt-responsive sequence and a luciferase gene), which was prepared by cleaving from a TOPglow plasmid contained in a TOPglow/FOPglow TCF Reporter Kit (upstate Catalog#17-366) with restriction enzymes HindIII and KpnI, was inserted between HindIII and KpnI in pNeo-HKS, thereby producing a plasmid pNeo-TOP. The plasmid pNeo-TOP was introduced into human fetus-derived renal cell strain HEK293, then a compound was selected using G418, and then a cell clone strain was established by a limiting dilution method. The cell clone strain was subjected to a Wnt signal detection test.
The cell clone strain was subcultured in a D-MEM glucose-rich culture medium (Wako Pure Chemical Industries, Ltd.) containing 10% FBS, and cells in a growth phase were used in the test. Cells were collected using trypsin-EDTA, the number of the cells was counted, and then the cells were suspended in a D-MEM glucose-rich culture medium containing 10% FBS so that the number of cells became 2×10^5 cells/mL. The cell suspension was added to a 96-well cell culture plate (Greiner Bio-One Co., Ltd., product number: 655083) in an amount of 0.1 mL/well and then cultured overnight in a 5% CO2 incubator (37° C.). After the culturing, a substance to be tested, which was dissolved in DMSO, was diluted with a D-MEM glucose-rich culture medium containing 10% of FBS and 80 mM of LiCl to produce a sample solution. The sample solution (0.1 mL) was added to each well and then cultured in a 5% CO2 incubator (37° C.) […]. Six hours after the addition of the sample solution, a supernatant was removed from each well, and then 50 μL of Bright-Glo™ Luciferase substrate (Promega, product number: E2620) was added thereto. The plate was put on a plate mixer for several seconds, and then the emission of light from each well was measured using a EnVision™ Multilabel plate reader (PerkinElmer Co., Ltd.). The Wnt signal activation rate (%) of each well was determined, and a concentration (IC50) which is required for inhibiting the Wnt signal activity of a substance of interest by 50% was calculated, wherein the luminosity of a well to which a sample solution was not added and LiCl was added was defined as a 100% Wnt signal activity and the luminosity of a well to which either of a sample solution or LiCl was not added was defined as a 0% Wnt signal activity.

[2] = PAMPA test (parallel artificial membrane permeability assay); format: in vitro ADME; conditions: phosphate buffer pH 6.8, about 200 μM, about 5 hours, room temperature, read-out: Test Example 4 membrane permeation coefficient Pe
Procedure: A test solution (see below) was stirred while shaking at room temperature for about 5 hours using a 96-well PAMPA plate (BD Biosciences) in which a lipid had been precoated onto a polyvinylidene fluoride (PVDF) film to evaluate the membrane permeation coefficient Pe (cm/s) of each compound dissolved in the test solution (concentration: about 200 μM) upon the transport of the compound from a donor side to an acceptor side through a lipid membrane. The Pe value was calculated in accordance with equations 1 and 2, and the concentration of the compound on the donor side and the acceptor side was measured by a HPLC-UV method. In 0.3 mL of the test solution on the donor side is contained about 1% (v/v) of DMSO, since 3 μL of a DMSO solution containing the compound at a concentration of 20 mM was added to the test solution.
Test solution: a phosphate buffer solution having a pH value of 6.8 (90 mM of phosphate, 48 mM of NaCl, 5.4 mM of KCl)
Conditions for stirring: a multishaker MS-300 (AS ONE Corporation), 350 rpm
[formula] CD(t): compound concentration in donor well at time t CA(t): compound concentration in acceptor well at time t VD: donor well volume (0.3 mL) VA: acceptor well volume (0.2 mL) A: filter area (0.3 cm^2)

[3] = Evaluation of solubility (DMSO stock into PBS, HPLC-UV); format: physicochemical; conditions: Dulbecco's phosphate-buffered saline pH 7, room temperature, about 15 minutes shaking, values greater than 200 μM regarded as 200 μM, read-out: Test Example 3 solubility
Procedure: To 0.25 mL of a test solution a mentioned below was added 2.5 μL of a DMSO solution having a compound concentration of 20 mM. The resultant solution was shaken at room temperature for about 15 minutes (the conditions for the shaking are mentioned below). Subsequently, a supernatant was collected by a suction filtration under a reduced pressure. A DMSO solution having a compound concentration of 200 μM was used as a standard solution, and the concentration of a compound in a filtrate which was quantified by a HPLC-UV method was employed as a solubility (rounded off to the whole number). In this evaluation, since a value 200 μM became the upper limit operationally, all of quantification values greater than 200 μM were regarded as 200 μM.
Test solution: GIBCO (registered trade name) Dulbecco's phosphate-buffered saline (pH 7, Life Technologies Corporation)
Conditions for shaking: a microplate shaker N-704 (Nissinrika Corporation), speed 6

[4] = aqueous buffer, kinetic from dmso stock

| Compound | Test Example 2 residual ratio of the test substance [1] [%] | IC50 (Wnt signal) [µM] | Papp [2] [×10⁻⁶ cm/s] | solubility [3, 4] [µM] | solubility [3] [µM] |
| --- | --- | --- | --- | --- | --- |
| C=CCN1CC(=O)N2[C@@H](Cc3ccc(O)cc3)C(=O)N(Cc3cccnc3N3CCC(N4CCCC4)CC3)C[C@@H]2N1C(=O)NCc1ccccc1 [Comparative Example 1, (6S,9aS)-N-Benzyl-6-(4-hydroxybenzyl)-4,7-dioxo-8-((2-(4-(pyrrolidin-1-yl)piperidin-1-yl)pyridin-3-yl)methyl)-2-(prop-2-en-1-yl)-octahydro-1H-pyrazino[2,1-c][1,2,4]triazine-1-carboxamide, reference compound] | 52.9 | 23.2 | 1.34 | 97 (≈ 67.2 µg/mL) | – |
| C[C@H]1C2N(C(=O)CN(C)N2C(=O)NCc2ccccc2)[C@@H](Cc2ccc(O)cc2)C(=O)N1Cc1cccc2cccnc12 (stereo partly drawn) [Comparative Example 2, (6S,9S)-N-Benzyl-6-(4-hydroxybenzyl)-2,9-dimethyl-4,7-dioxo-8-(quinolin-8-ylmethyl)octahydro-1H-pyrazino[2,1-c][1,2,4]triazine-1-carboxamide, reference compound] | 0.6 | 0.33 | 0.85 | 122 (≈ 70.6 µg/mL) | – |
| C=CCN1CC(=O)N2[C@@H](Cc3ccc(O)cc3)C(=O)N(Cc3cccc(N4CC(N5CCN(CC)CC5)C4)n3)C[C@@H]2N1C(=O)NCc1ccccc1 [Example 2, (6S,9aS)-N-Benzyl-8-((6-(3-(4-ethylpiperazin-1-yl)azetidin-1-yl)pyridin-2-yl)methyl)-6-((4-hydroxyphenyl)methyl)-4,7-dioxo-2-(prop-2-en-1-yl)-octahydro-1H-pyrazino[2,1-c][1,2,4]triazine-1-carboxamide] | 58 | 0.29 | 1.32 | – | 200 (≈ 142 µg/mL) |
| C=CCN1CC(=O)N2[C@@H](Cc3ccc(O)cc3F)C(=O)N(Cc3cccc(N4CC(N5CCN(C)CC5)C4)n3)C[C@@H]2N1C(=O)NCc1ccccc1 [Example 3, (6S,9aS)-N-Benzyl-6-((2-fluoro-4-hydroxyphenyl)methyl)-8-((6-(3-(4-methylpiperazin-1-yl)azetidin-1-yl)pyridin-2-yl)methyl)-4,7-dioxo-2-(prop-2-en-1-yl)-octahydro-1H-pyrazino[2,1-c][1,2,4]triazine-1-carboxamide] | 54 | 0.15 | 1.33 | – | 200 (≈ 142 µg/mL) |
| C=CCN1CC(=O)N2[C@@H](Cc3ccc(O)cc3F)C(=O)N(Cc3cccc(N4CC(N5CCN(C)[C@@H](C)C5)C4)n3)C[C@@H]2N1C(=O)NCc1ccccc1 [Example 4, (6S,9aS)-N-Benzyl-8-((6-(3-((3S)-3,4-dimethylpiperazin-1-yl)azetidin-1-yl)pyridin-2-yl)methyl)-6-((2-fluoro-4-hydroxyphenyl)methyl)-4,7-dioxo-2-(prop-2-en-1-yl)-octahydro-1H-pyrazino[2,1-c][1,2,4]triazine-1-carboxamide] | 44 | 0.06 | 2.03 | 199 (≈ 144 µg/mL) | – |
| C=CCN1CC(=O)N2[C@@H](Cc3ccc(O)cc3F)C(=O)N(Cc3cccc(N4CC(N5CCN(C)[C@H](C)C5)C4)n3)C[C@@H]2N1C(=O)NCc1ccccc1 [Example 5, (6S,9aS)-N-Benzyl-8-((6-(3-((3R)-3,4-dimethylpiperazin-1-yl)azetidin-1-yl)pyridin-2-yl)methyl)-6-((2-fluoro-4-hydroxyphenyl)methyl)-4,7-dioxo-2-(prop-2-en-1-yl)-octahydro-1H-pyrazino[2,1-c][1,2,4]triazine-1-carboxamide] | 39 | 0.082 | 1.18 | – | 200 (≈ 145 µg/mL) |
| C=CCN1CC(=O)N2[C@@H](Cc3ccc(O)cc3)C(=O)N(Cc3cccc(N4CC(N5CCN(C)C[C@@H]5C)C4)n3)C[C@@H]2N1C(=O)NCc1ccccc1 [Example 6, (6S,9aS)-N-Benzyl-8-((6-(3-((2S)-2,4-dimethylpiperazin-1-yl)azetidin-1-yl)pyridin-2-yl)methyl)-6-((4-hydroxyphenyl)methyl)-4,7-dioxo-2-(prop-2-en-1-yl)-octahydro-1H-pyrazino[2,1-c][1,2,4]triazine-1-carboxamide] | 55 | 0.25 | 1.27 | 195 (≈ 138 µg/mL) | – |
| C=CCN1CC(=O)N2[C@@H](Cc3ccc(O)cc3)C(=O)N(Cc3ccc(F)c(N4CC(N5CCN(CC)CC5)C4)n3)C[C@@H]2N1C(=O)NCc1ccccc1 [Example 7, (6S,9aS)-N-Benzyl-8-((6-(3-(4-ethylpiperazin-1-yl)azetidin-1-yl)-5-fluoropyridin-2-yl)methyl)-6-((4-hydroxyphenyl)methyl)-4,7-dioxo-2-(prop-2-en-1-yl)-octahydro-1H-pyrazino[2,1-c][1,2,4]triazine-1-carboxamide] | 29 | 0.095 | 2.77 | 189 (≈ 137 µg/mL) | – |
| C=CCN1CC(=O)N2[C@@H](Cc3ccc(O)cc3)C(=O)N(Cc3cccc(N4CC(N5CCN(C)CC5)C4)n3)C[C@@H]2N1C(=O)NCc1ccccc1 [Example 29, (6S,9aS)-N-Benzyl-6-((4-hydroxyphenyl)methyl)-8-((6-(3-(4-methylpiperazin-1-yl)azetidin-1-yl)pyridin-2-yl)methyl)-4,7-dioxo-2-(prop-2-en-1-yl)-octahydro-1H-pyrazino[2,1-c][1,2,4]triazine-1-carboxamide] | 63 | 0.47 | – | – | 200 (≈ 139 µg/mL) |
